# Assay results from patent US6166050A, “3,4-diamino-3-cyclobutene-1,2-dione derivatives which inhibit leukocyte adhesion mediated by VLA-4” (American Home Products Corporation, priority 1999, dated 2000).
# Target: T1, α4 β1 integrin (VLA-4) (Homo sapiens, UniProt P05556+P13612)
# T1 construct: Jurkat cells (ATCC #TIB-153) which express high levels of α4 β1 integrin (VLA-4); host or cells: Jurkat cells
# Assay: Monovalent FACS Assay for α4 β1 Integrin/VCAM-1 Binding (inhibition of soluble VCAM-1 binding to Jurkat cells)
# Conditions: not given
# Protocol: The foregoing compounds were tested for VLA-4 binding activity using the following monvalent FACS assay. The IC50 for a compound reflects 50% receptor occupancy.
# Monovalent FACS Assay for α4 β1 Integrin/VCAM-1 Binding
# The VLA-4 binding activity of exemplary compounds was measured by measuring the inhibition of the interaction of soluble VCAM-1 with Jurkat cells (ATCC #TIB-153) which express high levels of α4 β1 integrin (VLA-4) using a modification of the fluorescence activated cell sorter (FACS) assay described by Yednock, et al., J. Biol. Chem., 1995, 270:28740. VCAM-1 interacts with the cell surface in an α4 β1 integrin-dependent fashion.
# Jurkat cells were grown in RPMI 1640 supplemented with 10% fetal bovine serum, penicillin, streptomycin and glutamine as described by Yednock, supra.
# Recombinant soluble VCAM-1 (rsVCAM-1) was produced in a baculovirus expression system as a chimeric fusion protein containing the seven immunoglobulin domains of VCAM-1 on the N-terminus and the human IgG1 heavy chain constant region on the C-terminus as described by Yednock, supra. Supernatant containing approximately 10 ug/ml rsVCAM-1 was collected after 72 hours and used in the assay without purification.
# Jurkat cells (approximately 10^7 cells/ml) were treated with 1.5 mM MnCl2 and 5 μg/ml 15/7 for 30 minutes on ice to activate β1 integrin. Mn^+2 activates the receptor to enhance ligand binding, and 15/7 is a monoclonal antibody that recognizes an activated/ligand occupied conformation of α4 β1 integrin and locks the molecule into this conformation thereby stabilizing the VCAM-1/α4 β1 integrin interaction. Yednock, et al., supra. Antibodies similar to 15/7 have been prepared and may be used in this assay. For example, see, Luque, et al., 1996, J. Bio. Chem., 271: 11067.
# Aliquots of 25 μl cells were incubated for 30 minutes at room temperature with compounds using a standard 5-point serial dilution. 15 μl of rsVCAM-Fc-containing baculovirus supernatant was added to the cells and incubated for 30 minutes on ice as described in Yednock, et al., supra.
# Cells were washed twice and resuspended in 100 μl of a 1:100 dilution of FITC-conjugated goat anti-human IgG to detect the human Ig-VCAM-1 construct diluted in assay media containing 2.5% mouse serum to block potential cross-reactivity with cell surface bound 15/7. Cells were incubated on ice for 30 minutes in the dark. Cells were washed twice and analyzed with a standard FACS analysis as described in Yednock, et al., supra. on a FACScan flow cytometer (Becton Dickinson, Mountain View, Calif.).
# T1 sequence (P13612 34-1032): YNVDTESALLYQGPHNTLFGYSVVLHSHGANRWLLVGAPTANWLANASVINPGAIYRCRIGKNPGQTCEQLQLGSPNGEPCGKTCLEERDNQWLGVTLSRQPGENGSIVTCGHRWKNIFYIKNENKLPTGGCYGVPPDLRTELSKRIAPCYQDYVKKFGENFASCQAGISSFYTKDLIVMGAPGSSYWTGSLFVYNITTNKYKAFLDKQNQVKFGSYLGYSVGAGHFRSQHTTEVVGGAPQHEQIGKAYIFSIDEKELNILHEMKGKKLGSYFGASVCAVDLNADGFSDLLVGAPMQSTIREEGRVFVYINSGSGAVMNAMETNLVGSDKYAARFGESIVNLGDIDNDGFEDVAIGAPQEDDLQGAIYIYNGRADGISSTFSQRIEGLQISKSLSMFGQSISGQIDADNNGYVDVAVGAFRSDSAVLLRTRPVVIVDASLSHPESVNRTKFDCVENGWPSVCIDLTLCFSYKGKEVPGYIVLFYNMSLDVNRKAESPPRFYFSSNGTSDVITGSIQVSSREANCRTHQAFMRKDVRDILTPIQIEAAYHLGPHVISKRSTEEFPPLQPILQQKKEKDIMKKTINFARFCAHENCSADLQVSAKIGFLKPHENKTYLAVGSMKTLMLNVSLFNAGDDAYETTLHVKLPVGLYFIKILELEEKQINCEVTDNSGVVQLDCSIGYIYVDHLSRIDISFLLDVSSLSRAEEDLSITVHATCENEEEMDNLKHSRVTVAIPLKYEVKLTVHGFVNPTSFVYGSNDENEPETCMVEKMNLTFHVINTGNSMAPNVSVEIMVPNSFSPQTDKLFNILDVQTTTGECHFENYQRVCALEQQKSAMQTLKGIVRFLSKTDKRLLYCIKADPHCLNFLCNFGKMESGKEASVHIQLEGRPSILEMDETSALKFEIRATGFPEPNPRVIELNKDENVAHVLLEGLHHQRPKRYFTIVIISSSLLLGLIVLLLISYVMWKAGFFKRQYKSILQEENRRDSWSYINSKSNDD
# T1 sequence (P05556 21-798): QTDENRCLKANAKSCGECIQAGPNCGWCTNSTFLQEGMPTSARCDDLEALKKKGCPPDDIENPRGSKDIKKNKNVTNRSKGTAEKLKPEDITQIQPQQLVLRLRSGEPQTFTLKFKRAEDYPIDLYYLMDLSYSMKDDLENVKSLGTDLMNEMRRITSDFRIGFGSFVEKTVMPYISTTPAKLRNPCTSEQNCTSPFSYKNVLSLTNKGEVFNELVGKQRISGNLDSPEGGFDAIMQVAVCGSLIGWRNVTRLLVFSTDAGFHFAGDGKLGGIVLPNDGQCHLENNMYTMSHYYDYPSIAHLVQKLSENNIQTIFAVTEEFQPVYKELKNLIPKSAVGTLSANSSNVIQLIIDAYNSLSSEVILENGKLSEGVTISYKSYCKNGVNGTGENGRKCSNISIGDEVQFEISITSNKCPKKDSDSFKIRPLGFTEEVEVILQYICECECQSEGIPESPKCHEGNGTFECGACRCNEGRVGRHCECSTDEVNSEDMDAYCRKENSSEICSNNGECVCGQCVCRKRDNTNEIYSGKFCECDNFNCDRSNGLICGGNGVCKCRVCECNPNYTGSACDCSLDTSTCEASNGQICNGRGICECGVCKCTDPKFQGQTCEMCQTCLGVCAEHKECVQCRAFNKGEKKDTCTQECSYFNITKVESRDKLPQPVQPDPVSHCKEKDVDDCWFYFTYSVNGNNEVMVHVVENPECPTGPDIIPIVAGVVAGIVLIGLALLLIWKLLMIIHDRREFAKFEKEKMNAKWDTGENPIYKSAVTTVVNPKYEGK
row,SMILES,IC50
1,"CN1CCN(C(=O)Oc2ccc(C[C@H](Nc3c(N(C)CCc4ccncc4)c(=O)c3=O)C(=O)O)cc2)CC1 [Example 68, (2S)-3-[4-(4-methylpiperazinyl)carbamoyloxy-phenyl)-2-{2-[methyl-(2-pyridin-4-yl-ethyl)-amino]-3,4-dioxo-cyclobut-1-enylamino}-propionic acid]",1.3 nM
2,"CN1CCN(C(=O)Oc2ccc(C[C@H](Nc3c(N(C)CCc4ccccc4)c(=O)c3=O)C(=O)O)cc2)CC1 [Example 66, (2S)-3-[4-(4-methylpiperazinyl)carbamoyloxy-phenyl]-2-[2-(methyl-phenethyl-amino)-3,4-dioxo-cyclobut-1-enylamino]-propionic acid]",0.5 nM

# Same assay, conditions: Jurkat cells, rsVCAM-1; IC50 reflects 50% receptor occupancy; unit nM; read-out: IC50 (FACS)
row,IC50,SMILES
1,150 nM,"CCCCCCN(CCCCCC)c1c(N[C@@H](Cc2ccc(NC(=O)c3ccccc3)cc2)C(=O)O)c(=O)c1=O [Example 26, (S)-3-(4-Benzoylamino-phenyl)-2-(2-dihexylamino-3,4-dioxo-cyclobut-1-enylamino)-propionic acid]"
2,6.5 nM,"CCCCCCN(CCCCCC)c1c(N[C@@H](Cc2ccc(NC(=O)c3cccnc3)cc2)C(=O)O)c(=O)c1=O [Example 44, N-[2-(Dihexylamino)-3,4-dioxo-1-cyclobuten-1-yl]-4-[(3-pyridinylcarbonyl)amino]-L-phenylalanine]"
3,40 nM,CN(CCc1ccncc1)c1c(N[C@@H](Cc2ccc(NC(=O)c3cccnc3)cc2)C(=O)O)c(=O)c1=O [Example 46]
4,2.2 nM,"CN(CCc1ccccc1)c1c(N[C@@H](Cc2ccc(NC(=O)c3ccncc3)cc2)C(=O)O)c(=O)c1=O [Example 37, N-[2-[Methyl(2-phenylethyl)amino]-3,4-dioxo-1-cyclobuten-1-yl]-4-[(4-pyridinylcarbonyl)amino]-L-phenylalanine]"
5,160 nM,"CN(Cc1cccnc1)c1c(N[C@@H](Cc2ccc(NC(=O)c3cccnc3)cc2)C(=O)O)c(=O)c1=O [Example 48, N-[2-(Methyl-pyridin-3-ylmethyl-amino)-3,4-dioxo-cyclobut-1-enyl]-4-[(pyridine-3-carbonyl)-amino]-L-phenylalanine]"
6,15 nM,"CN(CCc1ccncc1)c1c(N[C@@H](Cc2ccc(NC(=O)c3ccncc3)cc2)C(=O)O)c(=O)c1=O [Example 35, N-[2-[Methyl[2-(4-pyridinyl)ethyl]amino]-3,4-dioxo-1-cyclobuten-1yl]-4-[(4-pyridinylcarbonyl)amino]-L-phenylalanine]"
7,26 nM,"CN(Cc1cccnc1)c1c(N[C@@H](Cc2ccc(NC(=O)c3ccncc3)cc2)C(=O)O)c(=O)c1=O [Example 41, N-[2-(Methyl-pyridin-3-ylmethyl-amino)-3,4-dioxo-cyclobut-1-enyl]-4-[(pyridine-4-carbonyl)-amino]-L-phenylalanine]"
8,1.3 nM,"CCCCCCN(CCCCCC)c1c(N[C@@H](Cc2ccc(NC(=O)c3ccncc3)cc2)C(=O)O)c(=O)c1=O [Example 39, N-[2-(Dihexylamino)-3,4-dioxo-1-cyclobuten-1-yl]-4-[(4-pyridinylcarbonyl)amino]-L-phenylalanine]"

# Second part, the compound before the results:
row,SMILES,IC50
1,CN(C)C(=O)Oc1ccc(C[C@H](Nc2c(N(C)CCc3ccccc3)c(=O)c2=O)C(=O)O)cc1 [Example 57],0.9 nM
2,CCCCCCN(CCCCCC)c1c(N[C@@H](Cc2ccc(OC(=O)N3CCN(C)CC3)cc2)C(=O)O)c(=O)c1=O [Example 70],0.2 nM
3,"CCCCCCN(CCCCCC)c1c(N[C@@H](Cc2cn(Cc3ccccc3)cn2)C(=O)O)c(=O)c1=O [Example 29, (S)-3-(1-Benzyl-1H-imidazol-4-yl)-2-(2-dihexylamino-3,4-dioxo-cyclobut-1-enylamino)-propionic acid]",631 nM
4,CCCCCCN(CCCCCC)c1c(N[C@@H](Cc2ccc(NC(=O)C3CCN(C(=O)OCc4ccccc4)CC3)cc2)C(=O)O)c(=O)c1=O [Example 53],71 nM
5,"CN(C)C(=O)Oc1ccc(C[C@H](Nc2c(N(C)Cc3cccnc3)c(=O)c2=O)C(=O)O)cc1 [Example 61, (2S)-3-(4-Dimethylcarbamoyloxy-phenyl)-2-[2-(methyl-pyridin-3-ylmethyl-amino)-3,4-dioxo-cyclobut-1-enylamino]-propionic acid]",8.3 nM
6,"CN(C)C(=O)Oc1ccc(C[C@H](Nc2c(N(C)CCc3ccncc3)c(=O)c2=O)C(=O)O)cc1 [Example 63, (2S)-3-(4-Dimethylcarbamoyloxy-phenyl)-2-{2-[methyl-(2-pyridin-4-yl-ethyl)-amino]-3,4-dioxo-cyclobut-1-enylamino}-propionic acid]",1.6 nM
7,"CCCCCCN(CCCCCC)c1c(N[C@@H](Cc2ccc(OCCCN(C)C)cc2)C(=O)O)c(=O)c1=O [Example 32, N-(2-Dihexylamino-3,4-dioxo-cyclobut-1-enylamino)-O-(3-dimethylamino-propyl)-L-tyrosine]",12 nM
8,"CCCCCCN(CCCCCC)c1c(N[C@@H](Cc2ccc(OC(=O)N(C)C)cc2)C(=O)O)c(=O)c1=O [Example 59, (2S)-2-(2-Dihexylamino-3,4-dioxo-cyclobut-1-enylamino)-3-(4-dimethylcarbamoyloxy-phenyl)-propionic acid]",0.6 nM

# Same assay, conditions: Jurkat cells, rsVCAM-1; IC50 reflects 50% receptor occupancy; unit μM; read-out: IC50 (FACS)
row,IC50,SMILES
1,36000 nM,"CCCCCCN(Cc1ccc2ccccc2c1)c1c(N[C@@H](Cc2ccccc2)C(=O)O)c(=O)c1=O [Example 17, (S)-2-[2-(Hexyl-naphthalen-2-ylmethyl-amino)-3,4-dioxo-cyclobut-1-enylamino]-3-phenyl-propionic acid]"
2,116000 nM,"O=C(O)[C@H](Cc1ccccc1)Nc1c(NCc2cccnc2)c(=O)c1=O [Example 9, {3,4-Dioxo-2-[(pyridin-3-ylmethyl)-amino]-cyclobut-1-enyl}-L-phenylalanine]"
3,13000 nM,"CCCCCCN(Cc1ccc(N(C)C)cc1)c1c(N[C@@H](Cc2ccccc2)C(=O)O)c(=O)c1=O [Example 19, (S)-2-{2-[(4-Dimethylamino-benzyl)-hexyl-amino]-3,4-dioxo-cyclobut-1-enylamino}-3-phenyl-propionic acid]"
4,4400 nM,"O=C(O)[C@H](Cc1ccccc1)Nc1c(N(Cc2ccccc2)Cc2ccccc2)c(=O)c1=O [Example 13, (2-Dibenzylamino-3,4-dioxo-cyclobut-1-enylamino)-L-phenylalanine]"
5,9000 nM,"CN(CCc1ccncc1)c1c(N[C@@H](Cc2ccccc2)C(=O)O)c(=O)c1=O [Example 50, N-{2-[Methyl-(2-pyridin-4-yl-ethyl)-amino]-3,4-dioxo-cyclobut-1-enyl}-L-phenylalanine]"
6,58000 nM,"O=C(O)[C@H](Cc1ccccc1)Nc1c(NCc2ccccc2)c(=O)c1=O [Example 3, [2-(Benzylamino)-3,4-dioxo-cyclobut-1-enyl]-L-phenylalanine]"

# More lines, now with the values behind:
row,SMILES,IC50
1,"CCCCCCN(CCCCCC)c1c(N[C@@H](Cc2ccccc2)C(=O)O)c(=O)c1=O [Example 15, (S)-2-(2-Dihexylamino-3,4-dioxo-cyclobut-1-enylamino)-3-phenyl-propionic acid]",1500 nM
2,"O=C(O)[C@H](Cc1ccccc1)Nc1c(NCCc2c[nH]c3ccccc23)c(=O)c1=O [Example 7, 2-{2-[2-(1H-Indol-3-yl)-ethylamino]-3,4-dioxo-cyclobut-1-enylamino}-L-phenylalanine]",52000 nM
3,"O=C(O)[C@H](Cc1ccccc1)Nc1c(NC(c2ccccc2)c2ccccc2)c(=O)c1=O [Example 5, [2-(benzhydrylamino)-3,4-dioxo-cyclobut-1-enyl]-L-phenylalanine]",101000 nM
4,"O=C(O)[C@H](Cc1ccccc1)Nc1c(N2CCN(c3ccccc3)CC2)c(=O)c1=O [Example 21, N-[3,4-Dioxo-2-(4-phenyl-piperazin-1-yl)-cyclobut-1-en-1-yl]-L-phenylalanine]",86000 nM
5,"CCCCCCN(Cc1ccccc1)c1c(N[C@@H](Cc2ccccc2)C(=O)O)c(=O)c1=O [Example 11, [2-(Benzyl-hexyl-amino)-3,4-dioxo-cyclobut-1-enyl]-L-phenylalanine]",4400 nM
6,"CC(=O)N1CCN(c2c(N[C@@H](Cc3ccccc3)C(=O)O)c(=O)c2=O)CC1 [Example 23, (S)-2-[2-(4-Acetyl-piperazin-1-yl)-3,4-dioxo-cyclobut-1-enylamino]-3-phenyl-propionic acid]",40000 nM
